How the values were obtained:
Assay in all cases: Hematological cell line viability/apoptosis flow cytometry assay
Type in all cases: cell-based
[1] = system: CII cell line; conditions: CII (CLL), 120 h
Experimental: (§1) Cell Proliferation and Viability Assay Using Hematological Cell Lines: The following exemplary anti-proliferative assay uses exemplary hematological cell lines in the following. The in vitro growth inhibitory activity of Compound 1 described herein was evaluated using a 384-well flow cytometry assay.
(§2) The cell lines were plated in 384-well flat bottom plates and assessed with increasing concentrations of compound ranging from 0.00015 to 10 μM or dimethyl sulfoxide (DMSO) control. The final concentration of DMSO was 0.1% (v/v). Following the addition of Compound 1 or DMSO and incubation for 120 hours, cell number and cell death were analyzed by flow cytometry (Attune®, Thermo Fisher) using Annexin V and the live-cell impermeant DNA dye, DRAQ7. Phosphatidylserine translocates from the inner layer to the outer layer of the cell membrane early in apoptosis and Annexin V binds to the exposed phosphatidylserine found on the surface of an apoptotic cell. The vital dye DRAQ7 is excluded by intact live cells and only stains cells that have died as a result of apoptosis or necrosis.
(§3) Flow cytometry data analysis was then performed using the Flow Jo_v10 software to determine the number of viable cells (Annexin V and DRAQ7 double negative staining cells) and percentage of apoptotic cells (Annexin V positive cells) for each condition. The live cell count for every concentration was normalized to the DMSO control (considered as 100%) to calculate the percentage of viable cells remaining after treatment and graphed using GraphPad Prism 7.03. The IC50 (50% inhibitory concentration) and Emax (maximum efficacy achieved) values were then calculated by performing nonlinear regression curve fitting using log(inhibitor) vs. normalized response—variable slope analysis on GraphPad Prism 7.03. Area under the curve (AUC) was calculated by performing area under curve analysis on GraphPad Prism 7.03. Similarly, for apoptosis analysis, the percentage of apoptosis combining both “early” (Annexin V positive and DRAQ7 negative) and “late” apoptosis (Annexin V and DRAQ7 positive) cell gates relative to DMSO was graphed using GraphPad Prism 7.03. The AUC, EC50 (concentration of compound that produces half-maximal apoptosis response) and Ymax (maximal percentage of apoptosis achieved) values from apoptosis curves were calculated by performing area under curve analysis and nonlinear regression curve fitting using log(agonist) vs. normalized response—Variable slope analysis on GraphPad Prism 7.03.
(§4) Dose-response proliferation curves for the panel of hematological cell lines and non-linear curve-fit regression were used to determine IC50, AUC, and Emax for % viable cells (Emax for viability varies between 100 at low doses and 0 at high doses, which corresponds to inhibition of all viable cells), and dose-response apoptosis curves were used to determine the EC50, AUC, and Ymax for % apoptosis (Ymax for apoptosis varies from 0 at low doses and 100 at higher doses which corresponds to death of all cells). Tumor cells were exposed to serial dilutions (0.00015 to 10 μM) of Compound 1 or dimethyl sulfoxide (DMSO) control for 5 days. Viability and apoptosis for all cell lines was determined by Annexin V/7-aminoactinomycin D (7-AAD) flow cytometry.

[2] = system: Farage cell line; conditions: Farage (DLBCL PMBL); 120 h
Experimental: as §1, §2, §3, §4

[3] = system: HNT-34 cell line; conditions: HNT-34 (AML), 120 h
Experimental: as §1, §2, §3, §4

[4] = system: HuT-102 cell line; conditions: HuT-102 (TCL), 120 h
Experimental: as §1, §2, §3, §4

[5] = system: JJN-3 cell line; conditions: JJN-3 (MM, PCL), 120 h
Experimental: as §1, §2, §3, §4

[6] = system: Karpas-299 cell line; conditions: Karpas-299 (TCL), 120 h
Experimental: as §1, §2, §3, §4

[7] = system: L-428 cell line; conditions: L-428 (HL), 120 h
Experimental: as §1, §2, §3, §4

[8] = system: OCI-LY18 cell line; conditions: OCI-LY18 (DLBCL); 120 h
Experimental: as §1, §2, §3, §4

[9] = system: STR428 cell line; conditions: STR428 (DLBCL), 120 h
Experimental: as §1, §2, §3, §4

[10] = system: SU-DHL-2 cell line; conditions: SU-DHL-2 (DLBCL ABC); 120 h
Experimental: as §1, §2, §3, §4

[11] = system: Toledo cell line; conditions: Toledo (DLBCL GCB); 120 h
Experimental: as §1, §2, §3, §4

[12] = system: WA-C3-CD5+ cell line; conditions: WA-C3-CD5+ (CLL), 120 h
Experimental: as §1, §2, §3, §4

[13] = system: WA-OSEL cell line; conditions: WA-OSEL (CLL), 120 h
Experimental: as §1, §2, §3, §4

[14] = Homo sapiens, read-out: % Viable Cells IC50

## O=C1CC[C@H](N2C(=O)c3cccc(NCc4ccc(CN5CC(N6CCOCC6)C5)cc4F)c3C2=O)C(=O)N1 [Compound 1, (S)-2-(2,6-dioxopiperidin-3-yl)-4-((2-fluoro-4-((3-morpholinoazetidin-1-yl)methyl)benzyl)amino)isoindoline-1,3-dione]
[1]
  % Viable Cells AUC: 926.1
  % Viable Cells Emax: 78.23%
  Apoptosis AUC: 238.1
  Apoptosis Ymax: 26.11%
  EC50: 145 nM
[1]; read-out: % Viable Cells IC50
  IC50: > 10000 nM
[2]
  % Viable Cells AUC: 10.16
  % Viable Cells Emax: 0.7936%
  Apoptosis AUC: 728.7
  Apoptosis Ymax: 84.17%
[3]
  % Viable Cells AUC: 353
  % Viable Cells Emax: 20.47%
  Apoptosis AUC: 130.1
  Apoptosis Ymax: 44.33%
  EC50: 876 nM
[3]; read-out: % Viable Cells IC50
  IC50: 26 nM
[4]
  % Viable Cells AUC: 395.4
  % Viable Cells Emax: 36.34%
  Apoptosis AUC: 42.75
  Apoptosis Ymax: 18.50%
  EC50: 23400 nM
[4]; read-out: % Viable Cells IC50
  IC50: 6.5 nM
[5]; [14]
  IC50: 0.4 nM
[5]
  % Viable Cells AUC: 278.2
  % Viable Cells Emax: 21.6%
  Apoptosis AUC: 57.97
  Apoptosis Ymax: 26%
[6]; Homo sapiens
  EC50: 168000 nM
[6]; [14]
  IC50: 12 nM
[6]
  % Viable Cells AUC: 283.7
  % Viable Cells Emax: 8.43%
  Apoptosis AUC: 14.51
  Apoptosis Ymax: 8.0%
[7]; Homo sapiens
  EC50: 64500 nM
[7]; [14]
  IC50: 252 nM
[7]
  % Viable Cells AUC: 450.4
  % Viable Cells Emax: 47.3%
  Apoptosis AUC: 63.35
  Apoptosis Ymax: 27.50%
[8]
  % Viable Cells AUC: 1.965
  % Viable Cells Emax: 0.05973%
  Apoptosis AUC: 965.2
  Apoptosis Ymax: 97.44%
[9]
  % Viable Cells AUC: 43.48
  % Viable Cells Emax: 1.227%
  Apoptosis AUC: 905.9
  Apoptosis Ymax: 95.17%
  EC50: 102 nM
[9]; read-out: % Viable Cells IC50
  IC50: 94.7 nM
[10]
  % Viable Cells AUC: 5.586
  % Viable Cells Emax: 0.2145%
  Apoptosis AUC: 928.4
  Apoptosis Ymax: 95.98%
[11]
  % Viable Cells AUC: 112.3
  % Viable Cells Emax: 8.56%
  Apoptosis AUC: 231.4
  Apoptosis Ymax: 27.5%
[12]
  % Viable Cells AUC: 474.8
  % Viable Cells Emax: 44.2%
  Apoptosis AUC: 162.9
  Apoptosis Ymax: 17.47%
  EC50: 52.4 nM
[12]; read-out: % Viable Cells IC50
  IC50: 530 nM
[13]
  % Viable Cells AUC: 616.1
  % Viable Cells Emax: 54.42%
  Apoptosis AUC: 69.39
  Apoptosis Ymax: 7.38%
  EC50: 112 nM
[13]; read-out: % Viable Cells IC50
  IC50: > 10000 nM
